Source: PubChem BioAssay (NCI)
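Assay format: 96-well plates, 48-hour exposure. GI50 marks 50% less growth. TGI denotes the concentration required for complete inhibition of growth.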

What was measured:
Experiment in all cases: NCI-60 cell line screen, 48 h
[1] = test system: DU-145 prostate
[2] = test system: SK-OV-3 ovarian
[3] = test system: OVCAR-4 ovarian
[4] = test system: UACC-62 melanoma
[5] = test system: SR leukemia
[6] = test system: SK-MEL-2 melanoma
[7] = test system: T-47D breast
[8] = test system: RPMI-8226 leukemia
[9] = test system: SF-539 CNS
[10] = test system: HS 578T breast
[11] = test system: CCRF-CEM leukemia
[12] = test system: HCT-116 colon
[13] = test system: M14 melanoma
[14] = test system: TK-10 renal
[15] = test system: SK-MEL-28 melanoma
[16] = test system: SN12C renal
[17] = test system: MCF7 breast
[18] = test system: A549 NSCLC
[19] = test system: U251 CNS
[20] = test system: HCT-15 colon
[21] = test system: LOX IMVI melanoma
[22] = test system: CAKI-1 renal
[23] = test system: PC-3 prostate
[24] = test system: UACC-257 melanoma
[25] = test system: BT-549 breast
[26] = test system: KM12 colon
[27] = test system: SNB-75 CNS
[28] = test system: NCI-H522 lung
[29] = test system: NCI-H226 lung
[30] = test system: NCI/ADR-RES ovarian
[31] = test system: SW-620 colon
[32] = test system: UO-31 renal
[33] = test system: A498 renal
[34] = test system: COLO 205 colon
[35] = test system: NCI-H23 lung
[36] = test system: HOP-62 NSCLC
[37] = test system: IGROV1 ovarian
[38] = test system: 786-0 renal
[39] = test system: SK-MEL-5 melanoma
[40] = test system: RXF 393 renal
[41] = test system: NCI-H460 lung
[42] = test system: OVCAR-8 ovarian
[43] = test system: HCC-2998 colon
[44] = test system: ACHN renal
[45] = test system: SF-295 CNS
[46] = test system: MOLT-4 leukemia
[47] = test system: SNB-19 CNS
[48] = test system: K-562 leukemia
[49] = test system: HL-60(TB) leukemia
[50] = test system: OVCAR-5 ovarian
[51] = test system: SF-268 CNS
[52] = test system: MALME-3M melanoma
[53] = test system: OVCAR-3 ovarian
[54] = test system: MDA-MB-231 breast
[55] = test system: HT29 colon
[56] = test system: EKVX NSCLC

`Cc1c(C2=C(c3cn(C)c4ccccc34)C(=O)NC2=O)c2ccccc2n1C` gave a GI50 [1] of 9.62 µM, a TGI [1] greater than 25 µM and a GI50 [2] of 1.78 µM. For the same compound, the TGI [2] was greater than 25 µM, the GI50 [3] was 9.22 µM and the TGI [3] was greater than 25 µM. The GI50 [4] was 1.95 µM, the TGI [4] was greater than 25 µM and the GI50 [5] was 1.18 µM. For the same compound, the TGI [5] was greater than 25 µM, the GI50 [6] was 1.93 µM and the TGI [6] was 24.3 µM. It also gave a GI50 [7] of 4.07 µM, a TGI [7] greater than 25 µM and a GI50 [8] greater than 13.8 µM. For the same compound, the TGI [8] was greater than 25 µM, the GI50 [9] was 0.921 µM and the TGI [9] was greater than 6.77 µM. For the same compound, the GI50 [10] was 0.943 µM, the TGI [10] was greater than 25 µM and the GI50 [11] was 1.47 µM. It also gave a TGI [11] greater than 25 µM, a GI50 [12] of 1.38 µM and a TGI [12] greater than 25 µM. It also gave a GI50 [13] of 1.5 µM, a TGI [13] greater than 25 µM and a GI50 [14] of 6 µM. For the same compound, the TGI [14] was greater than 25 µM, the GI50 [15] was greater than 22.3 µM and the TGI [15] was greater than 25 µM. For the same compound, the GI50 [16] was 15.5 µM, the TGI [16] was greater than 25 µM and the GI50 [17] was 0.997 µM. The TGI [17] was greater than 25 µM, the GI50 [18] was 1.74 µM and the TGI [18] was greater than 25 µM. It also gave a GI50 [19] of 2.01 µM, a TGI [19] greater than 25 µM and a GI50 [20] of 1.3 µM. For the same compound, the TGI [20] was greater than 25 µM, the GI50 [21] was 5.3 µM and the TGI [21] was greater than 25 µM. It also gave a GI50 [22] of 1.81 µM, a TGI [22] greater than 25 µM and a GI50 [23] of 4.38 µM. It also gave a TGI [23] greater than 25 µM, a GI50 [24] greater than 25 µM and a TGI [24] greater than 25 µM. It also gave a GI50 [25] of 2.09 µM, a TGI [25] greater than 25 µM and a GI50 [26] of 3.87 µM. The TGI [26] was greater than 25 µM, the GI50 [27] was 0.732 µM and the TGI [27] was 7.38 µM. It also gave a GI50 [28] of 0.969 µM, a TGI [28] greater than 25 µM and a GI50 [29] of 4.33 µM. The TGI [29] was greater than 25 µM, the GI50 [30] was 3.65 µM and the TGI [30] was greater than 25 µM. The GI50 [31] was 1.26 µM, the TGI [31] was greater than 25 µM and the GI50 [32] was 1.74 µM. It also gave a TGI [32] greater than 25 µM, a GI50 [33] of 1.91 µM and a TGI [33] of 11.2 µM. The GI50 [34] was 1.51 µM, the TGI [34] was greater than 25 µM and the GI50 [35] was 13.2 µM. The TGI [35] was greater than 25 µM, the GI50 [36] was 2.72 µM and the TGI [36] was greater than 25 µM. It also gave a GI50 [37] greater than 10.2 µM, a TGI [37] greater than 25 µM and a GI50 [38] of 3.56 µM. It also gave a TGI [38] greater than 25 µM, a GI50 [39] of 2.29 µM and a TGI [39] greater than 25 µM. The GI50 [40] was 1.38 µM, the TGI [40] was 19.6 µM and the GI50 [41] was 1.29 µM. It also gave a TGI [41] greater than 25 µM, a GI50 [42] of 10.8 µM and a TGI [42] greater than 25 µM. For the same compound, the GI50 [43] was 24.9 µM, the TGI [43] was greater than 25 µM and the GI50 [44] was 4.57 µM. For the same compound, the TGI [44] was greater than 25 µM, the GI50 [45] was 1.16 µM and the TGI [45] was greater than 25 µM. It also gave a GI50 [46] of 2.18 µM, a TGI [46] greater than 25 µM and a GI50 [47] greater than 25 µM. It also gave a TGI [47] greater than 25 µM, a GI50 [48] of 1.21 µM and a TGI [48] greater than 25 µM. For the same compound, the GI50 [49] was 0.962 µM, the TGI [49] was greater than 25 µM and the GI50 [50] was greater than 25 µM. For the same compound, the TGI [50] was greater than 25 µM, the GI50 [51] was 4.82 µM and the TGI [51] was greater than 25 µM. It also gave a GI50 [52] greater than 25 µM, a TGI [52] greater than 25 µM and a GI50 [53] of 0.882 µM. It also gave a TGI [53] of 4.73 µM, a GI50 [54] greater than 18.6 µM and a TGI [54] greater than 25 µM. For the same compound, the GI50 [55] was 1.12 µM and the TGI [55] was greater than 25 µM.

`COc1cc(C2C3=C(COC3=O)Oc3cc4c(cc32)OCO4)cc(OC)c1OC(C)=O` (stereo not drawn) showed a TGI [1] greater than 100 µM, a TGI [3] greater than 100 µM and a TGI [5] greater than 100 µM. The TGI [6] was greater than 100 µM, the TGI [8] was greater than 100 µM and the TGI [11] was greater than 100 µM. It also gave a TGI [13] greater than 100 µM, a TGI [14] greater than 100 µM and a TGI [16] greater than 100 µM. The TGI [17] was greater than 51.6 µM, the TGI [18] was greater than 100 µM and the TGI [19] was greater than 100 µM. It also gave a TGI [20] greater than 100 µM, a TGI [21] greater than 24.1 µM and a TGI [22] greater than 100 µM. For the same compound, the TGI [24] was greater than 100 µM, the TGI [25] was 5.74 µM and the TGI [26] was greater than 100 µM. For the same compound, the TGI [28] was greater than 100 µM, the TGI [32] was greater than 39.4 µM and the TGI [56] was greater than 100 µM. It also gave a TGI [33] of 0.618 µM, a TGI [34] of 0.336 µM and a TGI [36] greater than 100 µM. For the same compound, the TGI [37] was 10.9 µM, the TGI [38] was greater than 100 µM and the TGI [39] was 0.0785 µM. The TGI [41] was greater than 100 µM, the TGI [42] was greater than 100 µM and the TGI [43] was greater than 100 µM. The TGI [44] was greater than 57.2 µM, the TGI [46] was greater than 100 µM and the TGI [47] was greater than 100 µM. It also gave a TGI [48] greater than 100 µM, a TGI [49] of 0.615 µM and a TGI [51] greater than 100 µM. The TGI [52] was greater than 100 µM and the TGI [53] was greater than 100 µM.
